{
  "source": "patent US20230270753A1",
  "about": "“COMBINATIONS OF GABAA ALPHA 5 AGONISTS AND SV2A INHIBITORS AND METHODS OF USING IN THE TREATMENT OF COGNITIVE IMPAIRMENT” (AGENEBIO, INC., priority 2020, published 2023)",
  "test_system": "aged-impaired (AI) Long-Evans rats",
  "assay": "Morris Water Maze retention trial, levetiracetam (Example 1)",
  "type": "in vivo, rat",
  "conditions": "levetiracetam 5 mg/kg/day i.p.; retention trial 24 hours after last training trial",
  "description": "Six aged-impaired (AI) Long-Evans rats (as characterized above) were tested for their memory of new spatial information in the Morris water maze (MWM), under different drug/control treatment conditions (vehicle control and two different dosage levels of levetiracetam). A retention trial was performed after the training trials, as described below. The MWM apparatus consists of a large, circular pool (diameter 1.53 m; height, 0.58 m) filled with water (27° C.) that is made opaque through the addition of non-toxic pigment or some other substance. In the typical “hidden platform” version of the test, rats are trained to find a camouflaged white escape platform (height, 34.5 cm) that is positioned in the center of one quadrant of the maze about 1.0 cm below the water surface. This platform can be retracted to the bottom of the tank or raised to its normal position from outside the maze during behavioral testing. The location of the platform remains constant from trial to trial. […] The behavior of a rat in the pool is recorded by a camera that is suspended 2.5 m above the center of the pool. […] In the retention trial, the time the AI rats spent swimming in the target quadrant is measured and further plotted as a percentage of total swimming time. […]",
  "data": [
    {"molecule": "CC[C@@H](C(N)=O)N1CCCC1=O", "note": "[levetiracetam, (2S)-2-(2-oxopyrrolidin-1-yl)butanamide]", "values": [
      {"measurement": "time spent in the target quadrant vs vehicle", "value": "did not significantly improve"}
    ]}
  ]
}
